99 molecules from ChEMBL document CHEMBL3507680, “University of Dundee, Gates Library screen for HepG2 cell viability” can be followed below.

The nature of this data set: Human HepG2 cell viability assay in 384 well format. It is filed as toxicity, cell-based. Further details: dose 125 nL, time 70.5 hour; cytotoxicity at 70.5 h: concentration not given beside the values. To be noted: HepG2 cells, read-out: Inhibition.
Consider `Cc1ccc(C2(O)CCN(C(=O)CCn3c(C)cccc3=O)CC2)nc1`, for which the cytotoxicity at 70.5 h was found to be 27.8%. Consider `COCCn1ccnc1C1CCCN(C(=O)CSc2nnc(C)o2)C1` (centres undefined), for which the cytotoxicity at 70.5 h was -5.99%. For `Cc1cn2nc(N3CCN(Cc4nc(C(C)C)no4)CC3)sc2n1`, the cytotoxicity at 70.5 h was determined as 19.7%. On to `COc1cc(CNCCc2cc(F)cc3c2OCOC3)cc(OC)c1`, for which the cytotoxicity at 70.5 h was 1.52%. With `Nc1nccc(N2CCNC(C(=O)NCc3ccccn3)C2)n1` (centres undefined), the cytotoxicity at 70.5 h came out at 10.1%. The value for `Cc1nc(C(C)C)sc1C(=O)NS(=O)(=O)c1ccc(C#N)cc1` was -9.15%; that for `CC1CCc2nc(O)c(C(=O)NCc3cccc(F)c3)cc2C1` (centres undefined) was -3.12%. Consider `CCOCC(=O)N1C[C@@H]2CC[C@H](C1)N(Cc1ccccn1)C2=O`, for which the cytotoxicity at 70.5 h was -9.63%.

Take `Cc1cnn(CC(C)NCC(=O)NCCc2cccs2)c1` (centres undefined): the cytotoxicity at 70.5 h is 10.8%. With `CC(=O)c1cn(CCC(=O)Nc2c3c(nn2C)CSC3)c2ccccc12`, the cytotoxicity at 70.5 h was 14.7%. Under `CCNC(=O)[C@@H]1C[C@@H](N)CN1C(=O)Cc1cc(C)ccc1C` stands -8.37%; under `Cc1ccccc1NS(=O)(=O)c1ccc(C(=O)O)cc1F`, -2.98%. Under `Cc1c(CN2CCCC(C(=O)Nc3ccccc3)C2)cc(C#N)n1C` (centres undefined) stands -2.58%.

With `Cn1cc(-c2nnn3c2COC(CNCc2ccccn2)C3)cn1` (centres undefined), the cytotoxicity at 70.5 h came out at 14.6%. As for `O=C1NCCN1C(CNS(=O)(=O)C1CC1)Cc1cccc(F)c1` (centres undefined), the cytotoxicity at 70.5 h was -13.5%. The value for `Cc1ccccc1CNC(=O)c1ccccc1-n1cnc(CN)c1` was -0.745%; that for `COc1cc(Br)c(S(=O)(=O)NC(=O)C(C)OC)cc1OC` (centres undefined) was -6.11%. For `O=C(c1cscn1)N1CCO[C@H]2[C@@H](Oc3ccccn3)CC[C@@H]21`, the cytotoxicity at 70.5 h is -10.4%. Under `CC(C)c1n[nH]c(C2CN(C(=O)c3cn4ccccc4n3)CCO2)n1` (centres undefined) stands 15.7%.

For the molecule `CC(NCc1c(C(C)C)nn(C)c1N1CCOCC1)C(N)=O` (centres undefined), the cytotoxicity at 70.5 h is 15.3%. Turning to `O=C1OCCN1CCc1nc(-c2cc3c4c(c2)CC(=O)N4CCC3)cs1`, the cytotoxicity at 70.5 h was determined as 10.6%. For the molecule `COCC(C)NC(=O)NCCc1cccc(OC)c1O` (centres undefined), the cytotoxicity at 70.5 h was found to be 8.57%. With `Cc1ccc(-c2ncc(CNc3cnccc3CO)s2)cc1`, the cytotoxicity at 70.5 h was determined as 3.65%. For `O=C(Nc1ccccc1)NC1CCN(C2CCOC2)CC1` (centres undefined), the cytotoxicity at 70.5 h worked out at 5.7%. Under `CCc1ccc(S(=O)(=O)Nc2ccc(F)cc2C(=O)O)s1` stands 5.89%; under `CN1CCC(N[C@@H]2CO[C@H](CNC(=O)Nc3ccccc3)[C@H]2O)CC1`, -2.44%; under `O=C(O)c1c(Cl)ncn1-c1ccccc1`, -9.78%. As for `Cc1cc(NC(=O)CN2CCn3c(nnc3C(C)C)C2)n(C)n1`, the cytotoxicity at 70.5 h came out at 34.7%. In the case of `COc1ccc(S(=O)(=O)N2C[C@@H]3CN(C)CCO[C@@H]3C2)cc1`, the cytotoxicity at 70.5 h was -4.18%. In the case of `c1csc(CN2C[C@H]3CCC[C@@]3(COCC3CCOCC3)C2)n1`, the cytotoxicity at 70.5 h came out at 1.66%. Under `Clc1cccc(N2CCC(NCc3ncc[nH]3)C2)c1` (centres undefined) stands 0.765%; under `CCO[C@H]1C[C@@H](O)C12CCN(C(=O)CCN1CCCC1=O)CC2`, -9.62%; under `CNc1cncc(C2CCCN2C(=O)CCn2ccnc2)n1` (centres undefined), -6.98%.

Take `CSCC(CCO)Nc1nc(C(F)F)nc2ccccc12` (centres undefined): the cytotoxicity at 70.5 h was -7.1%. Regarding `Nc1nc(CCNc2ncnc3c2CCN(C(=O)C2CC2)C3)cs1`, the cytotoxicity at 70.5 h was -11.6%. Under `O=S(=O)(C1CC1)N1CCn2c(Cn3cccn3)cnc2C1` stands -1.3%; under `Cc1ccc(CN2CCCC2(C(N)=O)c2cnccn2)c(C)c1` (centres undefined), -0.964%; under `Cc1cccc2nc(C(=O)N3CCC(Nc4cccnn4)CC3)cn12`, -21.3%. Regarding `Cc1cc(C)c(S(=O)(=O)NCCC(=O)NCc2ccoc2)c(C)c1`, the cytotoxicity at 70.5 h was determined as 3.02%. Turning to `CC(C)c1cc(C(=O)N2CCc3ccccc3C2C(=O)O)n(C)n1` (centres undefined), the cytotoxicity at 70.5 h was -5.14%. Turning to `FC(F)(F)c1ccccc1CCC1CCCN(Cc2cscn2)C1` (centres undefined), the cytotoxicity at 70.5 h is 44.3%.

For the molecule `Cc1nc(C)n(C2CCCN(C(=O)c3cncnc3C)C2)n1` (centres undefined), the cytotoxicity at 70.5 h amounted to 2.45%.

As to `O=C(Cc1ccon1)NC1CCCN(c2ccccc2F)C1=O` (centres undefined), the cytotoxicity at 70.5 h amounted to 3.76%. Turning to `CC(O)(CNC(=O)c1c(F)cccc1Cl)c1ccco1` (centres undefined), the cytotoxicity at 70.5 h came to 29.8%.

As to `CN(C)CCN(Cc1ccc(C(F)(F)F)cc1)C(=O)c1cc[nH]n1`, the cytotoxicity at 70.5 h was 16.2%. Under `COCCN(Cc1ccco1)Cc1nc(-c2ccsc2)no1` stands 11.1%; under `CSCCC(=O)N1C[C@H](Nc2ccnc(C)n2)[C@@H](C(C)C)C1`, -23.4%.

Consider `COc1ccccc1-c1csc(NC(=O)N2CCN(C)CC2C)n1` (centres undefined), for which the cytotoxicity at 70.5 h is -14.7%.

With `O=C(c1ccnc(N2CCOC(C(F)(F)F)C2)c1)N1CCCC1` (centres undefined), the cytotoxicity at 70.5 h is 8.43%. The value for `O=C(c1cccnc1O)N1CCN(Cc2ccccc2F)CC1` was 17.4%. As to `O=C(c1cnc(C2CC2)s1)N1CCCC(n2cccn2)C1` (centres undefined), the cytotoxicity at 70.5 h was -2.13%. For `CCOC(=O)C1(Cc2cccc(OC)c2)CCN(Cc2ccon2)CC1`, the cytotoxicity at 70.5 h was -11.6%. Under `COc1cccc(C(=O)NC(C)CCN2CCOCC2)c1F` (centres undefined) stands -5.81%; under `CCOCCCNC(=O)Nc1ccc(F)c(C(N)=O)c1`, 6.9%; under `CCCn1c(NC(=O)CNC(=O)OCC)nc2ccccc21`, -8.2%.

Turning to `CCn1cncc1C1CC(=O)Nc2c1c(C)nn2-c1ccc(C)cc1` (centres undefined), the cytotoxicity at 70.5 h came to 1.51%. The value for `CCc1ccc(CN2CCN(c3ncc(Cl)cn3)CC2)nc1` was -5.54%; that for `Cc1nc(Cn2cncc(Br)c2=O)no1` was 6.27%; that for `CC(=O)NCCCC(=O)NC1(c2ccc(Cl)c(Cl)c2)CC1` was 2.93%. The value for `CCCc1nc(C(=O)NCCCn2nnc3ccccc32)cs1` was -8.53%; that for `NC(=O)C1CCN(C(=O)NCc2cccnc2OCC(F)(F)F)C1` (centres undefined) was -1.73%; that for `O=C(NC1CC1)N1CCc2ccc(=O)n(CC3CC3)c2CC1` was -1.74%.

Regarding `Cc1cc(S(=O)(=O)N2CCC(S(C)(=O)=O)C2)ccc1F` (centres undefined), the cytotoxicity at 70.5 h was -5.71%. Turning to `COc1ccnc(CN2CC(=O)N(c3ccc(C)cc3)CC2C)c1OC` (centres undefined), the cytotoxicity at 70.5 h is 16.8%.

`CC(C)c1noc(CN2CCN(C(=O)c3ccc(F)cc3)CC2)n1`: the cytotoxicity at 70.5 h was -3.61%. Take `CC1(C)OCC2(CO1)CN(C(=O)c1ccccc1Cl)C2`: the cytotoxicity at 70.5 h was -1.63%.

In the case of `CN(C)CCN1CCO[C@@H]2CCN(C(=O)c3cccn3C)CC[C@H]21`, the cytotoxicity at 70.5 h is 10.8%. As to `CC(C)c1cc(C(=O)N2CCN(c3ccncc3)CC2)n(C)n1`, the cytotoxicity at 70.5 h was -11.9%. The value for `COCCN1CCCC2(CCN(c3nc(C)nc4c3CCC4)C2)C1=O` (centres undefined) was -4.89%. Under `Cc1ccc(OCC(=O)NCC(F)(F)F)nc1` stands -4.18%; under `NC(=O)[C@@H]1Cc2ccccc2CN1CCC(=O)N1CCOCC1`, -5.31%; under `C[C@@H]1CN(Cc2cc(C3CCCCC3)no2)CC[C@]1(C)O`, -6.92%. The value for `O=c1[nH]c2c(c(=O)n1C1CCCCC1)CCC2Nc1ccc(Cl)cc1` (centres undefined) was -12.5%; that for `COc1cc(CNCc2ccc(C(C)O)cc2)cc2c1OCO2` (centres undefined) was 44.3%; that for `Cc1n[nH]c(=O)c2c(NC(=O)CN3CCOCC3)oc(C)c12` was -8.38%. Turning to `COc1ccccc1OCC(=O)NCC(O)(c1ccccc1)C1CC1` (centres undefined), the cytotoxicity at 70.5 h was -3.14%.

As for `Cc1ccc2c(c1)nc1n2[C@@H](CNC(=O)c2ccccn2)COC1`, the cytotoxicity at 70.5 h turned out to be 11.4%. Under `CCc1nc(-c2ccnc(N3CCNCC3)n2)no1` stands -2.35%. Under `O=C(NCc1cc(O)ncn1)C1CCOc2ccccc2C1` (centres undefined) stands -7.76%. With `Cn1cnc2c(N3CCCC3)nc(C3CCN(CC4CC4)CC3)cc21`, the cytotoxicity at 70.5 h is -0.352%. The value for `COC(=O)c1ccc(C2CC(=O)Nc3c2cnn3C)cc1` (centres undefined) was 3.26%; that for `Cc1ccc(Oc2ncccc2CNS(=O)(=O)N2CCOCC2)cn1` was -4.6%. The value for `O=S(=O)(NCc1ccccc1)Nc1cccc(Cn2cncn2)c1` was -7.79%; that for `CN(CC1CCCCC1)C(=O)c1ccc(-n2ncc(C#N)c2N)cc1` was -5.32%; that for `CN1CCN(C[C@@H]2CN(C(=O)c3ccccc3C#N)C[C@@H]2CO)CC1` was 13.9%.

As to `O=C(C1CC1)N1CC[C@H](c2nnc(Cc3c[nH]c4ccccc34)o2)C1`, the cytotoxicity at 70.5 h is -1.09%. Turning to `CCC(O)CNC(=O)c1cc(COc2ccc(OC)cc2Cl)[nH]n1` (centres undefined), the cytotoxicity at 70.5 h was -1.08%. Turning to `CCCc1n[nH]c(C2CN(C(=O)CCc3cscn3)CCO2)n1` (centres undefined), the cytotoxicity at 70.5 h is -1.57%. The value for `O=C(CN(C1=NCCCC1)c1ccccc1)c1ccc(OC(F)F)cc1` was -4.12%; that for `CC(C)c1cc(NCc2csc(C(C)C)n2)nc(N)n1` was 24.3%. The value for `CCCN1CCC(N(C)CCC(=O)Nc2ccccc2SC)CC1` was 1.62%; that for `CN(c1ccncn1)C1CC2(CCN(C(=O)c3ccsc3)C2)C1` (centres undefined) was -28.9%; that for `O=C(c1cscn1)N1CCC2(CC1)CCN(S(=O)(=O)c1ccccc1)C2` was -8.17%. On to `CCc1cc(NCc2cccnc2N2CCCCC2)n2ncnc2n1`, for which the cytotoxicity at 70.5 h was found to be 0.666%. The value for `CCN(CC(=O)NCc1nc(C2CC2)no1)Cc1ccc(Cl)cc1` was -15.6%. As to `Cc1nn(C(C)C)c(C)c1NC(=O)c1ccncc1`, the cytotoxicity at 70.5 h is -5.05%. As for `Cc1csc(Nc2cc(C3CN(C(C)C)C3)nc(C)n2)n1`, the cytotoxicity at 70.5 h was -3.73%.

`COC[C@@]12CCO[C@@H]1CCN(C(=O)COc1ccccc1OC)C2`: the cytotoxicity at 70.5 h was -11.3%. Turning to `Cn1cccc1C(=O)N1CCC2(CCN(C(=O)c3cccnc3)C2)CC1`, the cytotoxicity at 70.5 h was 3.23%.
